In the oligonucleotide strings, read from the 5' end, every base follows the letter of its sugar. An asterisk marks phosphorothioate; unmarked linkages are phosphodiester. Other units and linkages are bracketed, terminal groups are in braces. A string of capitals states the bases alone. d = 2'-deoxy (DNA); m = 2'-O-methyl
Target: T1, human TLR9 (Homo sapiens, UniProt Q9NR96)
T1 construct: HA; host or cells: 293XL-hTLR9-HA (HEK293)
T1 sequence (Q9NR96 26-1032): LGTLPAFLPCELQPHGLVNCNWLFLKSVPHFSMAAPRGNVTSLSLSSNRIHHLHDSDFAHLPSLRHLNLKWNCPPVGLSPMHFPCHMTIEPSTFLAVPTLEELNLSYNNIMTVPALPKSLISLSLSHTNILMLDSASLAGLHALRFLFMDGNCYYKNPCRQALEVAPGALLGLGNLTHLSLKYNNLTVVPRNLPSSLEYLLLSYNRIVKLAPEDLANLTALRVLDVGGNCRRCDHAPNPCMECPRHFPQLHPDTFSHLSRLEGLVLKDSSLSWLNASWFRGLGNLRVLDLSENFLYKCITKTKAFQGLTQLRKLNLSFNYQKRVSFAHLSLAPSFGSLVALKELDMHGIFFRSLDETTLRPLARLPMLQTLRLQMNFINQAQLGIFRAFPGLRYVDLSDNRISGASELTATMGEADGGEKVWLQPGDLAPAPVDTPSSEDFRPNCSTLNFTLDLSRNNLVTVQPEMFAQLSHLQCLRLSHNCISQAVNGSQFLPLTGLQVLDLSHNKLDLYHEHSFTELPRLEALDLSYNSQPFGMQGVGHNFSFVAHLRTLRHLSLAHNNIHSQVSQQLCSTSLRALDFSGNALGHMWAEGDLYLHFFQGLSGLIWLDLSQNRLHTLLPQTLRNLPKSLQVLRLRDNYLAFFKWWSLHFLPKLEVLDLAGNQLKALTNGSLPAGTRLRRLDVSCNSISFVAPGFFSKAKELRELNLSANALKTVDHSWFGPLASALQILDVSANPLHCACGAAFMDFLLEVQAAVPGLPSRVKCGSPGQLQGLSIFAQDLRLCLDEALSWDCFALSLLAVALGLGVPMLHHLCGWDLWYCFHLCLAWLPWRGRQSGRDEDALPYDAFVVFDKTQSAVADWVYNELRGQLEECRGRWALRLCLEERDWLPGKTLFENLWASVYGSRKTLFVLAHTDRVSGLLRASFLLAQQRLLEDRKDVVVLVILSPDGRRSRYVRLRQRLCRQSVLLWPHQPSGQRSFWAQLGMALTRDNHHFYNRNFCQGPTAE
Assay: HEK-TLR9 NF-κB-luciferase reporter, ODN2006 stimulation
Type: cell-based
Settings: for TLR9-500 nM: averaged NF-κB-Luciferase relative to ODN2006: 500 nM ASO 45 min, then 200 nM ODN2006 overnight, percentage of ODN2006 only; for TLR9 100 nM (averaged NF-κB-Luciferase level relative to ODN2006 condition): ASO 100 nM; for TLR9 100 nM (averaged NF-κB-Luciferase level relative to ODN2006 condition) / TLR9 500 nM (averaged NF-κB-Luciferase level relative to ODN2006 condition): relative to ODN2006 only, given as fraction; for TLR9 500 nM (averaged NF-κB-Luciferase level relative to ODN2006 condition): ASO 500 nM

Row | Substance | TLR9 100 nM (averaged NF-κB-Luciferase level relative to ODN2006 condition) | TLR9 500 nM (averaged NF-κB-Luciferase level relative to ODN2006 condition) | other results
1 | mA*mG*mC*mA*mG*T*C*T*C*C*A*T*G*T*C*mC*mC*mA*mG*mG (AGCAGTCTCCATGTCCCAGG; antisense; sugars from the 5' end m5 d10 m5, all phosphorothioate, methylation of C not given here) [[CDKN2B-AS1]2235] |  |  | TLR9-500 nM: averaged NF-κB-Luciferase relative to ODN2006 (HEK-TLR9): 73.18%
2 | GGTCTTGGCTTCGTGG (antisense; LNA-modified, pattern not given here) [MB21D1-523 LNA V1] | 0.658 | 0.417 | 
3 | GGCACTTTGCCTCCTT (antisense; LNA-modified, pattern not given here) [EGFR-2859 LNA V1] | 1.092 | 0.788 | 
4 | TACTTTCCGAGGTGTC (antisense; LNA-modified, pattern not given here) [CAMSAP1-1739 LNA KL] | 0.915 | 0.356 | 
5 | GCACTTCAGTCTGAGC (antisense; LNA-modified, pattern not given here) [MB21D1-719 LNA KL] | 0.673 | 0.144 | 
6 | AGGTCTTGGCTTCGTG (antisense; LNA-modified, pattern not given here) [MB21D1-524 LNA V1] | 0.975 | 0.383 | 
7 | ACTTCGTGGGGTCCTT (antisense; LNA-modified, pattern not given here) [HPRT LNA-663 V1] | 0.377 | 0.377 | 
8 | AACACTTCGTGGGGTC (antisense; LNA-modified, pattern not given here) [HPRT LNA-666 V1] | 1.104 | 0.475 | 
9 | TGGTCCACAACCCCTT (antisense; LNA-modified, pattern not given here) [MB21D1-697 LNA V1] | 1.018 | 0.587 | 
10 | mG*mU*mG*mU*mU*T*T*T*A*A*T*T*T*T*G*mU*mA*mG*mA*mG (mG*mU*mG*mU*mU*dT*dT*dT*dA*dA*dT*dT*dT*dT*dG*mU*mA*mG*mA*mG) [[CDKN2B-AS1]611] |  |  | TLR9-500 nM: averaged NF-κB-Luciferase relative to ODN2006 (HEK-TLR9): 98.50%
11 | TCCTTGCACGTGGCTT (antisense; LNA-modified, pattern not given here) [EGFR-1014 LNA V1] | 1.152 | 1.027 | 
12 | mG*mU*mC*mU*mC*C*A*T*G*T*C*C*C*A*G*mG*mC*mC*mU*mC (mG*mU*mC*mU*mC*dC*dA*dT*dG*dT*dC*dC*dC*dA*dG*mG*mC*mC*mU*mC) [[CDKN2B;AS1]2231] |  |  | TLR9-500 nM: averaged NF-κB-Luciferase relative to ODN2006 (HEK-TLR9): 77.80%
13 | GACTATACGCGCAATA (antisense; LNA-modified, pattern not given here) [NC5 LNA PS 3-10-3] | 0.784 | 0.403 | 
14 | AGCTTCGAGGCCCCAG (antisense; LNA-modified, pattern not given here) [MB21D1-616 LNA V1] | 0.114 | 0.085 | 
15 | AAAGGACTGAGGAAAG (antisense; LNA-modified, pattern not given here) [CAMSAP1-6273 LNA KL] | 0.780 | 0.185 | 
16 | ACACTTCGTGGGGTCCTTTT (antisense; 2'-MOE modified, pattern not given here) [HPRT-663 MOE] |  |  | inhibition of TLR9, 2′MOE ASOs (in words) (HEK-TLR9, 100 nM MOE ASO 45 min, 200 nM ODN2006 (FIG. 30)): stronger inhibitor than 664/665 and 666 ASOs; TLR9 100 nM (MOE-modified ASO at 100 nM, averaged NF-κB-Luciferase relative to ODN2006 condition): 0.114; TLR9 500 nM (MOE-modified ASO at 500 nM, averaged NF-κB-Luciferase relative to ODN2006 condition): 0.226

Row | Substance | TLR9 100 nM (averaged NF-κB-Luciferase level relative to ODN2006 condition) | TLR9 500 nM (averaged NF-κB-Luciferase level relative to ODN2006 condition) | other results
17 | AACCCCTTTCACCATC (antisense; LNA-modified, pattern not given here) [MB21D1-689 LNA KL] | 0.586 | 0.076 | 
18 | TGGTGGCCACCCATCT (antisense; LNA-modified, pattern not given here) [CTNN2B-2479 LNA V1] | 1.136 | 1.117 | 
19 | mA*mA*mA*mG*mC*A*G*T*C*T*C*C*A*T*G*mU*mC*mC*mC*mA (mA*mA*mA*mG*mC*dA*dG*dT*dC*dT*dC*dC*dA*dT*dG*mU*mC*mC*mC*mA; antisense) [[CDKN2B-AS1]2237] |  |  | TLR9-500 nM: averaged NF-κB-Luciferase relative to ODN2006 (HEK-TLR9): 87.17%
20 | TGTCTGGAAGCTTCCT (antisense; LNA-modified, pattern not given here) [CTNN2B-808 LNA V1] | 1.320 | 0.648 | 
21 | GGCTCGGCTTGCCTAC (antisense; LNA-modified, pattern not given here) [CAMSAP1-5594 LNA V1] | 0.714 | 0.350 | 
22 | AGGCCCTTCGCACTTC (antisense; LNA-modified, pattern not given here) [EGFR-1225 LNA V1] | 0.576 | 0.211 | 
23 | mA*mA*mG*mC*mA*G*T*C*T*C*C*A*T*G*T*mC*mC*mC*mA*mG (mA*mA*mG*mC*mA*dG*dT*dC*dT*dC*dC*dA*dT*dG*dT*mC*mC*mC*mA*mG; antisense) [[CDKN2B-AS1]2236] |  |  | TLR9-500 nM: averaged NF-κB-Luciferase relative to ODN2006 (HEK-TLR9): 69.71%
24 | mA*mG*mU*mG*mG*C*A*C*A*T*A*C*C*A*C*mA*mC*mC*mC*mU (AGUGGCACATACCACACCCU; antisense; sugars from the 5' end m5 d10 m5, all phosphorothioate, methylation of C not given here) [[CDKN2B-AS1]495] |  |  | TLR9-500 nM: averaged NF-κB-Luciferase relative to ODN2006 (HEK-TLR9): 86.07%
25 | CCACTTGGCAGACCAT (antisense; LNA-modified, pattern not given here) [CTNN2B-1575 LNA V1] | 1.112 | 0.111 | 
26 | CTTGGCTTCGTGGAGC (antisense; LNA-modified, pattern not given here) [MB21D1-520 LNA V1] | 0.596 | 0.371 | 
27 | CCCACTTGGCAGACCA (antisense; LNA-modified, pattern not given here) [CTNN2B-1576 LNA V1] | 0.381 | 0.656 | 
28 | AGTGTTGAGATACTCG (antisense; LNA-modified, pattern not given here) [EGFR-3652 LNA KL] | 0.982 | 0.540 | 
29 | CACTTCGTGGGGTCCT (antisense; LNA-modified, pattern not given here) [HPRT LNA-664 V1] | 0.215 | 0.074 | 
30 | CTTCGTGGGGTCCTTT (antisense; LNA-modified, pattern not given here) [HPRT LNA-662 V1] | 0.557 | 0.240 | 
31 | CCAGCAGGTCAGCAAA (antisense; LNA-modified, pattern not given here) [HPRT LNA-388 KL] | 0.736 | 0.149 | 
32 | mA*mG*mU*mC*mU*C*C*A*T*G*T*C*C*C*A*mG*mG*mC*mC*mU (mA*mG*mU*mC*mU*dC*dC*dA*dT*dG*dT*dC*dC*dC*dA*mG*mG*mC*mC*mU; antisense) [[CDKN2B-AS1]2232] |  |  | TLR9-500 nM: averaged NF-κB-Luciferase relative to ODN2006 (HEK-TLR9): 122.20%
